Data published in the supplement of paper PMC8671470.

How the values were obtained:
Settings in all cases: 72 h
MV4-11 [1] = tested on: MV4-11
Method in brief: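 For the IC50, dose–response curves were fitted with a log-logistic model. The data came from fifteen myeloid leukaemia cell lines grown in RPMI 1640 at densities in the linear growth range and incubated in 384-well plates for 72 h at 37 °C under 5% CO2. Doses were five tenfold steps from 1 to 10,000 nM in duplicate, and luminescent ATP viability was normalised to vehicle and to a positive control at 10 µM before four-parameter fitting.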

HL-60 [2] = assay: area under dose-response curve (viability, 1 nM-10 uM) (fraction (0-1)); higher = more sensitive
Method in brief: (§1)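 A rescreen of the full library used HL-60 cells in RPMI 1640 with 10% FBS on 384-well plates, run in duplicate at five tenfold concentrations (1–10,000 nM). Each screen included DMSO or 100 nM of one of three metabolic inhibitors and ran 72 h at 37 °C, 5% CO2. CellTiter-Glo viability was scaled between DMSO and 10 μM proteasome-inhibitor wells. Any area under the curve comes from four-parameter log-logistic fits with drc and PharmacoGx.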

HL-60 [3] = assay: cell viability (% survival relative to DMSO control); higher = less cytotoxic
Method in brief: as §1

MV4-11 [4] = assay: cell viability (% survival relative to DMSO control, bortezomib = 0%); higher = less cytotoxic
Method in brief: (§2)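 In 384-well plates pre-printed with compounds at 1, 10, 100, 1000 or 10000 nM, duplicate wells received cells from 10 AML and 5 CML lines at densities within the linear growth range. The plates stayed at 37 °C with 5% CO2 for 72 h before CellTiter-Glo luminescence was recorded. Each entry is averaged percent survival. Scaling placed vehicle at 100% and a 10 µM positive control at 0%.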

KU-812 = assay: as above
Method in brief: as §2

LAMA-84 = assay: as above
Method in brief: as §2

NOMO-1 = assay: as above
Method in brief: as §2

BV-173 = assay: as above
Method in brief: as §2

THP-1 = assay: as above
Method in brief: as §2

SHI-1 = assay: as above
Method in brief: as §2

MOLM-13 = assay: as above
Method in brief: as §2

K-562 = assay: as above
Method in brief: as §2

KG-1 = assay: as above
Method in brief: as §2

ML-2 = assay: as above
Method in brief: as §2

HL-60 [5] = assay: as above
Method in brief: as §2

Mono-Mac-6 = assay: as above
Method in brief: as §2

KCL-22 = assay: as above
Method in brief: as §2

HEL = assay: as above
Method in brief: as §2

Cl.NC1=CCCN1Cc1nc(O)nc(O)c1Cl [Tipiracil]
Settings	IC50 (cell viability) [µM]
MV4-11 [1]	> 10

Settings	area under dose-response curve, co-treatment: AZD3965 100 nM	area under dose-response curve, co-treatment: DMSO vehicle	area under dose-response curve, co-treatment: GSK2194069 100 nM	area under dose-response curve, co-treatment: pictilisib 100 nM	cell viability, 1 nM [%]	cell viability, 10 nM [%]	cell viability, 100 nM [%]	cell viability, 1000 nM [%]	cell viability, 10000 nM [%]
BV-173	–	–	–	–	108	95.1	97.9	99.5	106
HEL	–	–	–	–	122	102	112	111	103
HL-60 [2]	< 0.0301	< 0.0301	< 0.0301	< 0.0301	–	–	–	–	–
HL-60 [5]	–	–	–	–	98.8	97.2	127	130	119
K-562	–	–	–	–	106	99.8	105	115	106
KCL-22	–	–	–	–	115	90.2	105	114	90.8
KG-1	–	–	–	–	98.2	95.1	111	107	111
KU-812	–	–	–	–	101	88.8	104	108	99.7
LAMA-84	–	–	–	–	115	94.8	98.7	110	102
ML-2	–	–	–	–	108	92.7	114	105	104
MOLM-13	–	–	–	–	104	96.3	122	121	93.6
MV4-11 [4]	–	–	–	–	107	105	109	104	106
Mono-Mac-6	–	–	–	–	122	96.2	107	100	96.5
NOMO-1	–	–	–	–	106	100	100	100	99.2
SHI-1	–	–	–	–	107	106	125	113	116
THP-1	–	–	–	–	102	97.2	102	101	101

cell viability [%], HL-60 [3]
Settings	0.001 µM	0.01 µM	0.1 µM	1 µM	10 µM
co-treatment: AZD3965 100 nM	98.3	102	99.7	101	99.5
co-treatment: DMSO vehicle	97.2	94.3	102	99.34	100.1
co-treatment: GSK2194069 100 nM	98.7	97.9	97.8	98.6	88
co-treatment: pictilisib 100 nM	93	100	93.7	97	86.7

O=C(C(=O)c1ccc(Br)cc1)c1ccc(Br)cc1 [4,4'-Dibromobenzil]
Settings	IC50 (cell viability) [µM]
MV4-11 [1]	> 10

Settings	area under dose-response curve, co-treatment: AZD3965 100 nM	area under dose-response curve, co-treatment: DMSO vehicle	area under dose-response curve, co-treatment: GSK2194069 100 nM	area under dose-response curve, co-treatment: pictilisib 100 nM	cell viability, 1 nM [%]	cell viability, 10 nM [%]	cell viability, 100 nM [%]	cell viability, 1000 nM [%]	cell viability, 10000 nM [%]
BV-173	–	–	–	–	104	117	112	105	117
HEL	–	–	–	–	96.7	96.8	120	114	115
HL-60 [2]	< 0.0301	< 0.0301	< 0.0301	< 0.0301	–	–	–	–	–
HL-60 [5]	–	–	–	–	91.8	99.6	93.4	98.1	88.5
K-562	–	–	–	–	101	90.3	114	100	112
KCL-22	–	–	–	–	95.4	87.2	94.9	101	95.5
KG-1	–	–	–	–	95.5	98.6	101	100	91
KU-812	–	–	–	–	86.9	98.3	104	103	91.5
LAMA-84	–	–	–	–	98.8	101	109	106	96.9
ML-2	–	–	–	–	91.7	99.9	92.3	100	107
MOLM-13	–	–	–	–	87	83.8	80.4	87.5	93.8
MV4-11 [4]	–	–	–	–	101	92.1	107	85.3	89.3
Mono-Mac-6	–	–	–	–	109	101	94	109	97.9
NOMO-1	–	–	–	–	95.6	110	99.8	104	96.2
SHI-1	–	–	–	–	92.4	101	90	103	98.4
THP-1	–	–	–	–	98.2	103	100	95	97.6

cell viability [%], HL-60 [3]
Settings	0.001 µM	0.01 µM	0.1 µM	1 µM	10 µM
co-treatment: AZD3965 100 nM	105	105	99.5	94.7	102
co-treatment: DMSO vehicle	102	100	99.8	96.7	101
co-treatment: GSK2194069 100 nM	105	107.3	105.4	98.1	96.28
co-treatment: pictilisib 100 nM	109	105	95.5	98.3	101.7

CC(C)(CCCCCCCCCCC(C)(C)CC(=O)O)CC(=O)O [MEDICA 16]
Settings	IC50 (cell viability) [µM]
MV4-11 [1]	> 10

Settings	area under dose-response curve, co-treatment: AZD3965 100 nM	area under dose-response curve, co-treatment: DMSO vehicle	area under dose-response curve, co-treatment: GSK2194069 100 nM	area under dose-response curve, co-treatment: pictilisib 100 nM	cell viability, 1 nM [%]	cell viability, 10 nM [%]	cell viability, 100 nM [%]	cell viability, 1000 nM [%]	cell viability, 10000 nM [%]
BV-173	–	–	–	–	105	89.4	98.5	94.2	106
HEL	–	–	–	–	116	108	95.2	110	119
HL-60 [2]	< 0.0301	< 0.0301	< 0.0301	< 0.0301	–	–	–	–	–
HL-60 [5]	–	–	–	–	109	114	98	116	108
K-562	–	–	–	–	114	108	103	96.8	117
KCL-22	–	–	–	–	119	97.4	107	107	98.7
KG-1	–	–	–	–	91.7	95.8	98.6	107	99.8
KU-812	–	–	–	–	106	94.2	101	106	97.8
LAMA-84	–	–	–	–	110	85.8	99.3	98.6	97.8
ML-2	–	–	–	–	104	99.4	96.3	101	91.5
MOLM-13	–	–	–	–	113	97.1	107	79.4	96.7
MV4-11 [4]	–	–	–	–	124	105	94	102	116
Mono-Mac-6	–	–	–	–	99.8	114	102	102	111
NOMO-1	–	–	–	–	100	95.3	101	101	103
SHI-1	–	–	–	–	121	104	102	98.2	90.7
THP-1	–	–	–	–	103	94.8	97.2	96.5	99.3

cell viability [%], HL-60 [3]
Settings	0.001 µM	0.01 µM	0.1 µM	1 µM	10 µM
co-treatment: AZD3965 100 nM	100	104	105	101	99.5
co-treatment: DMSO vehicle	98.9	98.3	103	101	98
co-treatment: GSK2194069 100 nM	101.1	87.2	99	102	93.201
co-treatment: pictilisib 100 nM	97.8	100	93.9	90	99.96
